Values of other authors as cited in US20090317451A1, “PRESSURE-SENSITIVE ADHESIVE FOR SKIN SURFACE AND/OR TRANSDERMAL SUBSTANCE DELIVERY” (priority 2008, published 2009).
Structures can show the parent of a compound that is named as a salt.

Conditions: in glycerol; Merck 12th edition #886

Structure (SMILES)	decomposition by moisture
CC(=O)Oc1ccccc1C(=O)O [Aspirin, acetylsalicylic acid]	glycerol hinders the decomposition

Conditions: solvent(s) in which soluble; Merck 12th edition or other reference

Structure (SMILES)	Reported Solubility
CC(=O)Nc1ccc(O)cc1 [Acetaminophen]	Alcohol
Nc1nc2c(ncn2COCCO)c(=O)[nH]1 [Acyclovir]	Alcohol
CC(C)(C)NCC(O)c1ccc(O)c(CO)c1 (centres unmarked) [Albuterol]	Alcohol
CC(=O)Oc1ccccc1C(=O)O [Aspirin, acetylsalicylic acid]	Alcohol
CCOC(=O)c1ccc(N)cc1 [Benzocaine]	Alcohol
CC12CCC(CC1=O)C2(C)C (centres unmarked) [Camphor]	Alcohol
Cc1cc(C2CCCCC2)n(O)c(=O)c1 [Ciclopirox]	Alcohol
COc1cc(/C=C/C(=O)CC(=O)/C=C/c2ccc(O)c(OC)c2)ccc1O [Curcumin]	Alcohol
COc1cccc2c1C(=O)c1c(O)c3c(c(O)c1C2=O)C[C@@](O)(C(=O)CO)C[C@@H]3O[C@H]1C[C@H](N)[C@H](O)[C@H](C)O1 [Doxorubicin]	Alcohol
CC[C@H]1OC(=O)[C@H](C)[C@@H](O[C@H]2C[C@@](C)(OC)[C@@H](O)[C@H](C)O2)[C@H](C)[C@@H](O[C@@H]2O[C@H](C)C[C@H](N(C)C)[C@H]2O)[C@](C)(O)C[C@@H](C)C(=O)[C@H](C)[C@@H](O)[C@]1(C)O [Erythromycin hydrate]	Alcohol
CC(=O)OCC(CCn1cnc2cnc(N)nc21)COC(C)=O [Famciclovir]	Alcohol
Oc1ccc(C2CNCCc3c2cc(O)c(O)c3Cl)cc1 (centres unmarked) [Fenoldopam]	Alcohol
O=C(CCCN1CCC(O)(c2ccc(Cl)cc2)CC1)c1ccc(F)cc1 [Haloperidol]	Alcohol
CC(C)Cc1ccc(C(C)C(=O)O)cc1 (centres unmarked) [Ibuprofen]	Alcohol
CC(C)Cn1cnc2c(N)nc3ccccc3c21 [Imiquimod]	Glycerol +
CC(=O)N1CCN(c2ccc(OCC3COC(Cn4ccnc4)(c4ccc(Cl)cc4Cl)O3)cc2)CC1 (centres unmarked) [Ketoconazole]	Alcohol
CS(C)(=O)=O [MSM, dimethyl sulfone, dimethyl sulfone]	Alcohol
Cc1ncc([N+](=O)[O-])n1CCO [Netronidazole]	Water, alcohol
C#C[C@]1(OC(C)=O)CC[C@H]2[C@@H]3CCC4=CC(=O)CC[C@@H]4[C@H]3CC[C@@]21C [Norethindrone acetate]	Alcohol
CC(=O)O[C@H]1C(=O)[C@@]2(C)[C@H]([C@H](OC(=O)c3ccccc3)[C@]3(O)C[C@H](OC(=O)[C@H](O)[C@@H](NC(=O)c4ccccc4)c4ccccc4)C(C)=C1C3(C)C)[C@]1(OC(C)=O)CO[C@@H]1C[C@@H]2O [Paclitaxel]	Alcohol
Nc1nc2c(ncn2CCC(CO)CO)c(=O)[nH]1 [Penciclovir]	Water
CC[C@@H]1C(=O)OC[C@@H]1Cc1cncn1C [Pilocarpine]	Alcohol
CC(CN1c2ccccc2Sc2ccccc21)N(C)C (centres unmarked) [Promethazine]	Alcohol
CN(C/C=C/C#CC(C)(C)C)Cc1cccc2ccccc12 [Terbinafinehydrochloride]	Alcohol

Same assay, conditions: solvent(s) in which soluble; Merck 12th edition or other reference; listed as Liquimod

Structure (SMILES)	Reported Solubility
CC(C)Cn1cnc2c(N)nc3ccccc3c21 [Imiquimod]	Alcohol
